From US11510928B2, “Use of mirtazapine in the treatment of inflammatory disorders, autoimmune disease and PBC” (UTI Limited Partnership, priority 2017, dated 2022)

Key:
[1] = test system: hepatic CXCL10/IP-10, CXCL9/MIG, ICAM-1 and VCAM-1 expression; assay: Immunohistochemistry of liver sections after mirtazapine treatment; type: in vivo, mouse
Protocol: Male 8-10 week old C57BL/6 mice (Jackson Labs, Bar Harbor, Me.) were used. All procedures were approved by the University of Calgary Animal Care Committee (protocol numbers AC14-0129 and AC14-0128) and were performed in accordance with the guidelines of the Canadian Council on Animal Care. To delineate the impact of mirtazapine treatment upon liver immune cell numbers and phenotype, and upon cytokine/chemokine networks within the liver, mice were treated with mirtazapine 1-20 mg/kg intraperitoneally^13-15. Mirtazapine was suspended in 1% aqueous solution of Tween 80, whereas the control group received 1% aqueous solution of Tween 80. Blood and liver samples were collected 5 hours post-mirtazapine treatment (or 16 hours post-Con A treatment). The detailed experimental protocols, lists of antibodies and reagents used, flow cytometry gating, and immune cell phenotyping strategies, are described herein. Hepatic CXCL10/IP-10, CXCL9/MIG, ICAM-1 and VCAM-1 expression were determined using immunohistochemistry, as previously described. Briefly, following initial deparaffinization and rehydration of tissue sections, antigen retrieval was performed in lx Citrate buffer, PH 6.0 (Abcam) for IP-10/CXCL9 and MIG/CXCL9, or in 1X EDTA buffer pH 8.0 for ICAM1 and VCAM-1. In all cases slides were incubated in antigen retrieval buffer at 95-100° C. for 20 minutes. […] This was followed by incubation with biotinylated rabbit anti-goat, goat-anti rat or goat anti-rabbit secondary antibodies (at 1:150) for 1 hour at room temperature (Vector Labs). Negative staining controls were performed by omission of primary antibody, or by omission of both primary and secondary antibodies. […] This was followed by incubation with Vectastain Elite ABC kit (Vector Laboratories) for 30 min at room temperature. Color was developed with Nova Red Chromogen (ImmPACT NovaRED Peroxidase Substrate, Vector Lab, Burlingame, Calif.), after which sections were counterstained with hematoxylin (EMD Millipore). Mounted slides were converted to virtual slides with a BX61 VS virtual microscopy system equipped with an XC10 camera and VS ASW software (Olympus) (original magnification ×400). For ICAM-1, VCAM1, CXCL9/Mig, and CXCL10/IP10 expression, all scanned virtual slides of the sections were examined in a blinded fashion, and expression patterns evaluated and described.

hepatic B cells = assay: Hepatic B cell characterization by flow cytometry, with liver/plasma cytokine and chemokine levels (Example 6); type: in vivo, mouse
Protocol: Male C57BL/6 mice (age 8-10 wks) were treated with mirt (20 mg/kg ip) or vehicle and livers removed 3-5 hrs later for B cell isolation and characterization by flow cytometry (FACS). Similarly peripheral blood and splenic B cells numbers were determined by FACS. Liver cytokine and chemokine levels were measured by Luminex®.

[2] = test system: patients in the UK THIN database; assay: Retrospective THIN cohort study: incidence of autoimmune diseases with mirtazapine exposure (Example 7); type: in vivo, human; conditions: exposed vs matched (2:1) non-exposed cohort
Description: Patients who were prescribed mirtazapine. 90 day ([…]) identified and compared to a matched patient cohort (2:1) not exposed to mirtazapine (n=372,822). Out models were adjusted for depression, use of other antidepressants, comorbidity status, smoking and alcohol consumption.

[3] = test system: antigen-induced arthritis (mBSA); assay: Antigen-induced arthritis (AIA) mouse model; type: in vivo; conditions: 20 mg/kg, 24 hrs post-antigen challenge
Description: The antigen-induced arthritis (AIA) mouse model is a well-characterized model that is extensively used to provide insights into the pathogenesis of RA. AIA is critically dependent on an early innate immune response (within 24 hrs post-induction) mediated by synovial TM's and neutrophils which drive subsequent adaptive immune responses and chronic joint inflammation. Proinflammatory cytokines (eg. TNFα, IL-17A and IL-1) and chemokines (eg. CXCL1, CXCL2) recruit neutrophils to the joint in this model. AIA is induced by the intradermal (tail base) injection of 500 μg methylated BSA (mBSA; Sigma) in 50 μl saline+complete Freund's adjuvant (CFA; Sigma) on day 0. 14 days later mice receive an antigen challenge with mBSA (10 μg/10 μl saline) injection into the left knee joint. At various time points after antigen challenge knee swelling is assessed using calipers, and the knee cavity exposed and inflammatory response and tissue injury assessed by immune cell analyses (cell phenotyping by FACS, using our published protocols), cytokine/chemokine expression (by Luminex® and qRT-PCR), and scoring of histological joint damage. Assessment of joint innate immune responses will occur at 24 and 48 hrs post-antigen challenge42. […] Hypernociception was measured before and 24 hrs post-antigen challenge using an automatic dynamic plantar algesiometer (Hugo Basile Inc).

## CN1CCN2c3ncccc3Cc3ccccc3C2C1 (stereo not drawn) [Mirtazapine]
[1]; hepatocytes and sinusoidal endothelium, vs vehicle
  Hepatic CXCL10 expression (IHC): strikingly increased
[1]; normal liver, vs vehicle
  Hepatic ICAM-1 expression (IHC): did not notably alter ICAM-1 expression
  Hepatic VCAM-1 expression (IHC): enhanced VCAM-1 staining intensity in sinusoidal endothelium and a marked increase in VCAM-1 expression intensity in sinusoidal immune cells
[1]; vs vehicle treated mice
  Hepatic CXCL9 staining (IHC): increased CXCL9 staining mainly within hepatocytes
Hepatic B cells; 20 mg/kg ip, 3-5 hrs
  B cell CXCR3 expression levels (MFI): 12180±315.9
  Elevation of hepatic CXCL10 levels (Luminex): ~120 fold
  Frequency of VLA-4+ hepatic B cells: 61.9+1.8%
  Hepatic CXCR3+ B cells: 47.5+1.4%
  Hepatic CXCR3hi B cells: 30.7±1.5%
  Hepatic CXCR3lo B cells: did not significantly alter
  Increase in hepatic IFNγ levels (Luminex): ~8 fold
  VLA-4+CXCR3hi B cells: 16.1±1.7%
Hepatic B cells; 20 mg/kg ip, within 3-5 hours
  Decrease in total hepatic B cell (IgM+) numbers: ~48%
Hepatic B cells; 5 hr post-treatment
  % B2 cells of IgM+ B cells in liver: 29.6%+2.3%
Hepatic B cells; 5 hrs post-treatment
  B1a B cells within the liver: 32.4%+1.5%
  Plasma levels of CXCL10 (ELISA): 138.4 ± 24.4 pg/mL
Hepatic B cells; 5 hrs post-treatment, NS
  Hepatic B1b B cells: 23.5%+1.4%
Hepatic B cells; flow cytometry, 3 hrs post-treatment
  CD11b+Ly6Chi monocytes producing CXCL10: 12.2%±3.8%
Hepatic B cells; post-mirt
  Hepatic VCAM-1 expression (immunohistochemistry): clear upregulation
[2]
  Adjusted Incidence Rate Ratio (adjusted IRR), Multiple Sclerosis: 0.80
  Adjusted Incidence Rate Ratio (adjusted IRR), Psoriasis: 0.93
  Adjusted Incidence Rate Ratio (adjusted IRR), Rheumatoid Arthritis: 0.55
[3]
  AIA-induced hypernociception: attenuates
  Joint total neutrophil recruitment: reduces
  Synovial fluid CXCL1 levels: but not CXCL1
  Synovial fluid IL-1α levels: reduces
  Synovial fluid TNFα levels: reduces
